Assay results taken from patent publication US20250161263A1, “USE OF A COMPOUND, PHARMACEUTICAL FORMULATION, METHOD OF TREATMENT FOR ASTHMA AND/OR COPD, AND COMPOUND” (FUNDAÇÃO OSWALDO CRUZ, priority 2022, published 2025).
Entries after “also recorded” stand apart in the source; their conditions may differ.

Columns and labels:
Type in all cases: in vivo, mice (BALB/c)
IL-5 = IL-5 in bronchoalveolar lavage by ELISA, airway hypersensitivity model
Procedure: (§1) The ovalbumin-induced airway hypersensitivity model (BOLANDI et al., 2021), used as the basis for the present findings, induces pathophysiological and structural changes which characterize respiratory diseases such as asthma and chronic obstructive pulmonary disease (COPD).
(§2) The mice were divided into groups of six animals and immunized with a subcutaneous injection of 10 μg of ovalbumin (Sigma, St. Louis, MO) diluted in 2 mg/ml alum (Alunmlmject; Pierce, Rockford, IL), followed by of a booster injection 14 days later. From day 28 onwards, the mice were placed in an acrylic box and subjected to inhalation exposure to ovalbumin (1%) for 15 minutes per day, for five consecutive days. The ovalbumin solution was nebulized using an ultrasonic inhaler (RespiraMax, Brazil). The protocol used to induce airway hypersensitivity was performed as previously described (POSSA, 2013). The naive group was challenged with saline only. To carry out the treatments, two hours before each challenge via inhalation, the mice were treated with braylin ([…] and 12.5 mg/kg, via inhalation), dexamethasone (30 mg/kg via intraperitoneal) or vehicle (10% propylene glycol in saline, inhaled).
(§3) The animals were euthanized with a lethal dose of ketamine and xylazine (300 mg/Kg and 30 mg/Kg, respectively via i.p.) 24 hours after the last challenge to collect bronchoalveolar lavage (BAL). Intratracheal instillation of 1 ml of ice-cold PBS was performed, followed by BAL collection, and this procedure was repeated. The first wash was centrifuged and the supernatant stored at −70° C. for subsequent quantification of cytokines by ELISA. The second wash was centrifuged, the supernatant was discarded and the pellets were resuspended in 1 ml of saline to count total leukocytes using a Neubauer chamber. […]
(§4) The bronchoalveolar lavage supernatant stored at −70° C. was thawed and used to quantify the cytokines IL-4, IL-5 and IL-13 by the ELISA method, using specific kits (R&D System, Minnesota, MN, USA) for mice, following the manufacturer's instructions (VASCONCELOS, 2009).

[1] = system: inflammatory cells in lung tissue; experiment: Pulmonary inflammatory infiltrate, HE-stained lung sections, airway hypersensitivity model; conditions: 50 mg/kg inhaled, vs vehicle, p<0.05
Procedure: The mice were divided into groups of six animals and immunized with a subcutaneous injection of 10 μg of ovalbumin (Sigma, St. Louis, MO) diluted in 2 mg/ml alum (Alunmlmject; Pierce, Rockford, IL), followed by of a booster injection 14 days later. From day 28 onwards, the mice were placed in an acrylic box and subjected to inhalation exposure to ovalbumin (1%) for 15 minutes per day, for five consecutive days. The ovalbumin solution was nebulized using an ultrasonic inhaler (RespiraMax, Brazil). […] The naive group was challenged with saline only.
After collecting the bronchoalveolar lavage, lung perfusion was performed intratracheally with 1 ml formalin (4%) and, subsequently, the right lobe of the lungs of each animal was removed and fixed in the same solution for histological and morphometric analysis. The sections were stained with hematoxylin and eosin to quantify inflammatory cells by optical microscopy according to the number of cores present in the fields with the largest population of cells. […] 10 fields (400×) per animal were analyzed for a total of 5 animals, and the data were used to calculate the average number of cells per mm^2, or the area stained with PAS. The program used to assist in cell counting and area determination was Image-Pro PLUS, version 4.5 (Media Cybernetics, Silver Spring, USA).

[2] = system: PAS-labeled mucus-producing goblet cells of the bronchiolar epithelium; experiment: Goblet cell metaplasia / mucus production, PAS-stained lung sections, airway hypersensitivity model; conditions: braylin treatment (FIG. 5: 50 mg/kg/in), p<0.05
Procedure: as §1
(§5) The mice were divided into groups of six animals and immunized with a subcutaneous injection of 10 μg of ovalbumin (Sigma, St. Louis, MO) diluted in 2 mg/ml alum (Alunmlmject; Pierce, Rockford, IL), followed by of a booster injection 14 days later. From day 28 onwards, the mice were placed in an acrylic box and subjected to inhalation exposure to ovalbumin (1%) for 15 minutes per day, for five consecutive days. The ovalbumin solution was nebulized using an ultrasonic inhaler (RespiraMax, Brazil). […]
After collecting the bronchoalveolar lavage, lung perfusion was performed intratracheally with 1 ml formalin (4%) and, subsequently, the right lobe of the lungs of each animal was removed and fixed in the same solution for histological and morphometric analysis. The sections were stained with hematoxylin and eosin to quantify inflammatory cells by optical microscopy according to the number of cores present in the fields with the largest population of cells. To quantify mucus production, staining was performed with periodic acid-Schiff (PAS) and the marked areas were quantified. […]

[3] = system: total inflammatory cells in bronchoalveolar lavage (airway hypersensitivity model in mice); experiment: Total inflammatory cell count in bronchoalveolar lavage, ovalbumin-induced airway hypersensitivity model; conditions: vs vehicle
Procedure: as §1
as §5, with “Brazil). The protocol used to induce airway hypersensitivity was performed as previously described (POSSA, 2013). The naive group was challenged with saline only.” for “Brazil).”
(§6) The animals were euthanized with a lethal dose of ketamine and xylazine (300 mg/Kg and 30 mg/Kg, respectively via i.p.) 24 hours after the last challenge to collect bronchoalveolar lavage (BAL). Intratracheal instillation of 1 ml of ice-cold PBS was performed, followed by BAL collection, and this procedure was repeated. The first wash was centrifuged and the supernatant stored at −70° C. for subsequent quantification of cytokines by ELISA. The second wash was centrifuged, the supernatant was discarded and the pellets were resuspended in 1 ml of saline to count total leukocytes using a Neubauer chamber. To carry out the differential cell count, 10,000 cells were collected from the previous resuspension, centrifuged in Cytospin® and stained with hematoxylin and eosin (VASCONCELOS, 2009).

IL-4 = IL-4 in bronchoalveolar lavage by ELISA, airway hypersensitivity model; conditions: p<0.05
Procedure: as §1, §5
The animals were euthanized with a lethal dose of ketamine and xylazine (300 mg/Kg and 30 mg/Kg, respectively via i.p.) 24 hours after the last challenge to collect bronchoalveolar lavage (BAL). […] The first wash was centrifuged and the supernatant stored at −70° C. for subsequent quantification of cytokines by ELISA. […]
as §4

[4] = system: eosinophils, neutrophils and mononuclear cells in bronchoalveolar lavage; experiment: Differential count of eosinophils, neutrophils and mononuclear cells in bronchoalveolar lavage, airway hypersensitivity model; conditions: 50 mg/Kg by inhalation
Procedure: as §1, §2, §6

IL-13 = IL-13 in bronchoalveolar lavage by ELISA, airway hypersensitivity model
Procedure: as §1, §2, §3, §4

COc1cc2ccc(=O)oc2c2c1OC(C)(C)C=C2 [braylin]
level of IL-5 in BAL (IL-5; 12.5 mg/kg inhaled): significant reduction | level of IL-5 in BAL (IL-5; 25 mg/kg inhaled, p<0.05): reduced | level of IL-5 in BAL (IL-5; 50 mg/kg inhaled, p<0.05): reduced | lung inflammation, presence of inflammatory cells in HE-stained lung [1]: reduction in lung inflammation | Goblet cell labeling (PAS) in the bronchiolar epithelium, mucus production [2]: reduced | number of inflammatory cells in the BAL ([3]; 12.5 mg/kg by inhalation): no effect | number of inflammatory cells in the BAL ([3]; 25 mg/kg by inhalation, p<0.05): reduced | number of inflammatory cells in the BAL ([3]; 50 mg/kg by inhalation, 5 consecutive days, p<0.05): significantly lower; also recorded: reduced | number of inflammatory cells in the BAL ([3]; 50 mg/kg intraperitoneally, 5 consecutive days, p<0.05): significantly lower | number of inflammatory cells in the BAL ([3]; 100 mg/kg by inhalation, p<0.05): reduced | level of IL-4 in BAL (IL-4; 25 mg/kg inhaled): reduced | level of IL-4 in BAL (IL-4; 50 mg/kg inhaled): reduced | quantity of mononuclear cells in BAL ([4]; compared with naive group): approached the values found in mice in the naive group | amount of eosinophils present in BAL ([4]; vs vehicle, p<0.05): reduced | amount of neutrophils present in BAL ([4]; vs vehicle, p<0.05): reduced | level of IL-13 in BAL (IL-13; 12.5 mg/kg inhaled): significant reduction | level of IL-13 in BAL (IL-13; 25 mg/kg inhaled, p<0.05): reduced | level of IL-13 in BAL (IL-13; 50 mg/kg inhaled, p<0.05): reduced
